Measurements from patent publication US20030104099A1, “Mineral delivery systems and methods” (priority 2001, published 2003).
Where two headings read alike, the source gives them in different places.

Assays:
[1] = for solids in 25 grams of the filtered solution after drying: 2 grams acid + 2 grams calcium carbonate in 50 grams distilled water, four hours, 25 grams dried; for water solubility at ambient: distilled water
Experimental: To a 250 ml beaker, 2 grams of adipic acid powder is dissolved in 50 grams of distilled water. Then, 2 grams of calcium carbonate powder (Vicron 25-11 FG from Specilaty Minerals, Inc.) are added. […] After four hours, the slurry is filtered through a filter paper.
To a 250 ml beaker, 2 grams of tartaric acid powder is dissolved in 50 grams of distilled water. Then, 2 grams of calcium carbonate powder are added. […] After four hours, the slurry is filtered through a filter paper.
To a 250 ml beaker, 2 grams of malic acid powder is dissolved in 50 grams of distilled water. Then, 2 grams of calcium carbonate powder are added. […] After four hours, the slurry is filtered through a filter paper.
To a 250 ml beaker, 2 grams of citric acid powder is dissolved in 50 grams of distilled water. Then, 2 grams of calcium carbonate powder are added. […] After four hours, the slurry is filtered through a filter paper.
To a 250 ml beaker, 2 grams of fumaric acid powder is dissolved in 50 grams of distilled water. Then, 2 grams of calcium carbonate powder are added. […] After four hours, the slurry is filtered through a filter paper.

[2] = 120 grams distilled water, 3 grams acid, 39° C., 50 rpm, 30 minutes mixing, dried at 110° C.

| Structure (SMILES) | solids in 25 grams of the filtered solution after drying [1] | water solubility at ambient [1] | soluble calcium salt contained in the fluid ([2]; 75 grams ALPHA GRANDE bubble gum base) | soluble calcium salt contained in the fluid ([2]; 75 grams DREYCO gum base) | solubility in methanol (solids from ALPHA GRANDE bubble gum base fluid) | solubility in methanol (solids from DREYCO gum base fluid) |
| --- | --- | --- | --- | --- | --- | --- |
| O=C([O-])/C=C/C(=O)[O-].[Ca+2] [Calcium fumarate] | 0.6 grams | 2.4% | 1.19% | 1.46% | not soluble | not soluble |
| O=C([O-])CC(O)C(=O)[O-].[Ca+2] (stereo not drawn) [Calcium malate] | 0.5 grams | 2.0% | – | – | – | – |
| O=C([O-])C(O)C(O)C(=O)[O-].[Ca+2] (stereo not drawn) [Calcium tartrate] | 0.15 grams | – | – | – | – | – |
